Test results from patent US20250282768A1 (Janssen Pharmaceutica NV, priority 2022, published 2025).

System: p-IKKa levels in L363 (NIK translocated multiple myeloma) cells
Assay: Assay 2: Effect of compounds on p-IKKa levels in L363 (NIK translocated multiple myeloma) cells
Format: cell-based
Settings: Homo sapiens, L-363, 6 h, read-out: Assay 2 IC50 (nM), p-IKKa (Ser 176/180) in BAFF stimulated L363 cells with MG132, 6 h; average if tested more than once
Outline: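 Read-out is p-IKKa Ser176/180 by AlphaLISA SureFire in lysates. Cells were BAFF-primed (250 ng/ml) overnight or left unstimulated, then exposed 6 h at 37 °C to compound with MG132 (10 μM), 0.3% DMSO. IC50 from sigmoidal curve fit, normalized between stimulated and unstimulated controls.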

| SMILES | IC50 [nM] |
| --- | --- |
| Cc1ncc(C#N)cc1Nc1nccc(-c2cccc(-c3cc([C@]4(O)CCN(C)C4=O)on3)n2)n1 [Example 471, (R)-5-((4-(6-(5-(3-Hydroxy-1-methyl-2-oxopyrrolidin-3-yl)isoxazol-3-yl)pyridin-2-yl)pyrimidin-2-yl)amino)-6-methylnicotinonitrile] | < 50 |
| CNC(=O)c1cnc(C)c(Nc2nccc(-c3cccc(-c4cc([C@]5(O)CCN(C)C5=O)on4)n3)n2)c1 [Example 473, (R)-5-((4-(6-(5-(3-Hydroxy-1-methyl-2-oxopyrrolidin-3-yl)isoxazol-3-yl)pyridin-2-yl)pyrimidin-2-yl)amino)-N,6-dimethylnicotinamide] | 50 to 500 |
| CN1CC[C@@](O)(c2cc(-c3cccc(-c4ccnc(Nc5cnc6c(c5)CCCO6)n4)n3)no2)C1=O [Example 474, (R)-3-(3-(6-(2-((3,4-Dihydro-2H-pyrano[2,3-b]pyridin-6-yl)amino)pyrimidin-4-yl)pyridin-2-yl)isoxazol-5-yl)-3-hydroxy-1-methylpyrrolidin-2-one] | < 50 |
| COCc1cc(Nc2nccc(-c3cccc(-c4cc([C@]5(O)CCN(C)C5=O)on4)n3)n2)nn1C [Example 475, (R)-3-Hydroxy-3-(3-(6-(2-((5-(methoxymethyl)-1-methyl-1H-pyrazol-3-yl)amino)pyrimidin-4-yl)pyridin-2-yl)isoxazol-5-yl)-1-methylpyrrolidin-2-one] | < 50 |
| CN1CC[C@@](O)(c2cc(-c3cccc(-c4ccnc(NC5CCN(S(C)(=O)=O)CC5)n4)n3)no2)C1=O [Example 476, (R)-3-Hydroxy-1-methyl-3-(3-(6-(2-((1-(methylsulfonyl)piperidin-4-yl)amino)pyrimidin-4-yl)pyridin-2-yl)isoxazol-5-yl)pyrrolidin-2-one] | 50 to 500 |
